Measured values: ChEMBL document CHEMBL4680083, “Identification of Tricyclic Agonists of Sphingosine-1-phosphate Receptor 1 (S1P) Employing Ligand-Based Drug Design” (J Med Chem, 2016)

What was measured:
[1] = Ratio of plasma concentration in Lewis rat at 1 mg/kg, po measured at 4 hrs to plasma concentration in Lewis rat at 1 mg/kg, po measured at 24 hrs; type: ADME, organism-based; conditions: in vivo
Cytochrome P450 2C8 = target: T1, Cytochrome P450 2C8 (Homo sapiens, UniProt P10632); assay: Inhibition of CYP2C8 (unknown origin); type: ADME
T1 sequence (P10632 whole entry): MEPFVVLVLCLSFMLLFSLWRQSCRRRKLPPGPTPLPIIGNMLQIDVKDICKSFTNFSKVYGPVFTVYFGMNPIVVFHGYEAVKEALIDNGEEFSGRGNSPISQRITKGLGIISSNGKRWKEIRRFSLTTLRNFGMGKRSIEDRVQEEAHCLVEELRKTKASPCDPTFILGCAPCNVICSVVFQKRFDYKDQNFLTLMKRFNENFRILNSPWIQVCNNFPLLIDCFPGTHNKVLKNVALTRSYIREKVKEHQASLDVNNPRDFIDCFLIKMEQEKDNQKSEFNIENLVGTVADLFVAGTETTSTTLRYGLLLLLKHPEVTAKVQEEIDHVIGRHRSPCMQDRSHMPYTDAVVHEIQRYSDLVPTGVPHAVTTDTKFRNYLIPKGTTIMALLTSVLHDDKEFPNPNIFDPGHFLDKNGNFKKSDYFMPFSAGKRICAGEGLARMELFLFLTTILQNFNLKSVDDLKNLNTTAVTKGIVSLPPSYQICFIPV

[2] = Metabolic stability in monkey assessed as half-life; type: ADME, Macaca mulatta; conditions: rhesus monkey
[3] = Cmax in cynomolgus monkey at 0.5 mg/kg, po or 0.5 mg/kg, iv; type: ADME, organism-based, Macaca fascicularis; set-up: dose 0.5 mg/kg; conditions: in vivo
[4] = AUC in cynomolgus monkey at 0.5 mg/kg, po; type: ADME, organism-based, Macaca fascicularis; set-up: dose 0.5 mg/kg; conditions: in vivo
[5] = Volume of distribution at steady state in mouse at 5 mg/kg, po or 2 mg/kg, iv; type: ADME, organism-based; conditions: in vivo, read-out: Vdss

Ratio [1]: 4
IC50 (Cytochrome P450 2C8): 14 µM
half-life [2]: > 2 h
Cmax [3]: 410 nM
AUC [4]: 3.4 µM·h
Vd [5]: 2.2 L/kg
SMILES: O=C(O)C1CN(Cc2ccc3c(c2)CCc2c-3noc2-c2onc(-c3ccccc3)c2C(F)(F)F)C1
